One test relates to S. aureus (NCTC 10788). The test is classed as cell-based, Staphylococcus aureus. The following applies: S. aureus (NCTC 10788); broth-dilution, MHB pH 7.4, 37 °C; positive control.
The test system of the next test is MRSA (NCTC 12493). In kind it is cell-based, methicillin-resistant S. aureus. Particulars: MRSA (NCTC 12493); broth-dilution, MHB pH 7.4, 37 °C; positive control.
A further test relates to E. faecalis (NCTC 12697). In kind it is cell-based, Enterococcus faecalis. The following applies: E. faecalis (NCTC 12697); broth-dilution, MHB pH 7.4, 37 °C; positive control.
The next test deals with E. coli (NCTC 10418). The test is classed as cell-based, Escherichia coli. The following applies: E. coli (NCTC 10418); broth-dilution, MHB pH 7.4, 37 °C; positive control.
Test [1] concerns K. pneumoniae (ATCC 43816). The test is classed as cell-based, Klebsiella pneumoniae. Particulars: K. pneumoniae (ATCC 43816); broth-dilution, MHB pH 7.4, 37 °C; positive control.
Description: (§1) Gram-positive bacteria Staphylococcus aureus (NCTC 10788) and Enterococcus faecalis (NCTC 12697) and Gram-negative bacteria Escherichia coli (NCTC 10418), Pseudomonas aeruginosa (ATCC 27853), and Klebsiella pneumoniae (ATCC 43816) were tested. […] All the bacterial strains were inoculated in Mueller Hinton broth (MHB), pH 7.4 (Oxiod, Basingstoke, UK) at 37 °C. Then, the log-phase bacteria were mixed with the peptide at the concentrations from 512 to 1 µM in two-fold dilution, in a 96 well-plate. The wells contained sterilized MHB and bacteria cultures were employed as a blank and growth control, respectively.
Test [2] deals with K. pneumoniae (ATCC BAA 1705). The test is classed as cell-based, Klebsiella pneumoniae. Particulars: K. pneumoniae (ATCC BAA 1705); broth-dilution, MHB pH 7.4, 37 °C; positive control.
Description: as §1
Test [3] deals with K. pneumoniae (ATCC BAA 2342). In kind it is cell-based, Klebsiella pneumoniae. Particulars: K. pneumoniae (ATCC BAA 2342); broth-dilution, MHB pH 7.4, 37 °C; positive control.
Description: as §1
Test [4] has as its system P. aeruginosa (ATCC 27853). In kind it is cell-based, Pseudomonas aeruginosa. Particulars: P. aeruginosa (ATCC 27853); broth-dilution, MHB pH 7.4, 37 °C; positive control.
Description: as §1

Here are results for three compounds from paper PMC7557582, “Broad-Spectrum Antimicrobial Activity and Improved Stability of a D-Amino Acid Enantiomer of DMPC-10A, the Designed Derivative of Dermaseptin Truncates” (Antibiotics, 2020).

Description for E. coli (NCTC 10418): as §1
Description for E. faecalis (NCTC 12697): as §1
Description for MRSA (NCTC 12493): as §1
Description for S. aureus (NCTC 10788): as §1

For `CNC(C)C1CCC(N)C(OC2C(N)CC(N)C(OC3OCC(C)(O)C(NC)C3O)C2O)O1` (stereo not shown) [Gentamicin, reference compound], the MIC of antibiotic in the test on S. aureus (NCTC 10788) is on record as <0.0625/<0.13 µg/mL; in the test on MRSA (NCTC 12493) it was 0.125/0.26 µg/mL; with E. faecalis (NCTC 12697), 4/8.38 µg/mL; in the test with E. coli (NCTC 10418), 1/2.09 µg/mL; in test [1], 1/2.09 µg/mL; in test [2], 2/4.19 µg/mL. Also, the MIC of antibiotic in test [3] was 4/8.38 µg/mL; in test [4], 0.25/0.52 µg/mL.

With `CCn1cc(C(=O)O)c(=O)c2cc(F)c(N3CCNCC3)cc21` [Norfloxacin, reference compound], the MIC of antibiotic in the test on S. aureus (NCTC 10788) was 2/6.26 µg/mL; with MRSA (NCTC 12493), 2/6.26 µg/mL; in the test with E. faecalis (NCTC 12697) it was 4/12.53 µg/mL; in the test with E. coli (NCTC 10418), 1/3.13 µg/mL; in test [1], 2/6.26 µg/mL; in test [2], >32/>100.21 µg/mL. Further, the MIC of antibiotic is recorded as >32/>100.21 µg/mL in test [3] and 2/6.26 µg/mL in test [4].

Turning to `CN[C@H](CC(C)C)C(=O)N[C@H]1C(=O)N[C@@H](CC(N)=O)C(=O)N[C@H]2C(=O)N[C@H]3C(=O)N[C@H](C(=O)N[C@H](C(=O)O)c4cc(O)cc(O)c4-c4cc3ccc4O)[C@H](O)c3ccc(c(Cl)c3)Oc3cc2cc(c3O[C@@H]2O[C@H](CO)[C@@H](O)[C@H](O)[C@H]2O[C@H]2C[C@](C)(N)[C@H](O)[C@H](C)O2)Oc2ccc(cc2Cl)[C@H]1O` [Vancomycin, reference compound], the results for the MIC of antibiotic in the test with S. aureus (NCTC 10788), in the test with MRSA (NCTC 12493) and in the test with E. faecalis (NCTC 12697) were 0.125/0.08 µg/mL, 0.125/0.08 µg/mL and 1/0.69 µg/mL, respectively.
